This is an account of results in US20210307376A1, “Compositions Comprising Nicotine and/or Nicotine Salts and Ultrasonic Aerosolisation of Compositions Comprising Nicotine and/or Nicotine Salts” (priority 2020, published 2021).

For series [1] the following is noted: cited from earlier work; for P (octanol:water partitioning coefficient): [solute in octanol]:[solute in aqueous buffer]; for P (octanol:water partitioning coefficient) / % Aqueous: phosphate buffer; for P (octanol:water partitioning coefficient) / logP / % Aqueous: pH 7.4; for logP: octanol : aqueous phosphate buffer; for % Nonpolar: share of solute in octanol phase.

The test system of the next series is nicotinic receptors. The following applies: inhaled; compared to other nicotine salts such as nicotine salicylate; cited from earlier work.
For series [2] the following is noted: P 0.69 versus P 0.00145.
Source text: The partitioning coefficient can be used as a measure of lipid solubility.

For Nicotine Levulinate, in series [1], the “P (octanol:water partitioning coefficient)” value is on record as 0.69; the logP – broadly, a log measure of how a compound divides between an organic and an aqueous phase – was −0.16; the “% Aqueous” value was 59%; the “% Nonpolar” value is listed as 41%. Moreover, the “increase in proportion of nicotine binding sites” value with nicotinic receptors is 20-50%. The “increase of partitioning coefficient P in comparison to levulinic acid” value in series [2] worked out at 500 fold.

Consider `CC(=O)CCC(=O)O` [Levulinic Acid], for which, in series [1], the “P (octanol:water partitioning coefficient)” value is reported as 0.00145, the logP is on record as −2.84, the “% Aqueous” value was 99.85% and the “% Nonpolar” value is listed as 0.15%.

`CN1CCCC1c1cccnc1` (centres unmarked) [Nicotine]: in series [1], the “P (octanol:water partitioning coefficient)” value is reported as 2.82, the logP is listed as 0.45, the “% Aqueous” value is listed as 26% and the “% Nonpolar” value was 74%.
